Test results from PubChem BioAssay (NCI).
“And” between values parts separate entries of the source, which are not always exact repeats. Equal entries are not always repeated.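 Following 48 hours of exposure in 96-well plates, responses at five concentrations were used to interpolate endpoints linearly. At the GI50, growth is halved. Definition used: TGI = concentration required for complete inhibition of growth.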

Columns and labels:
Test in all cases: inhibition of tumour cell growth, NCI panel, 48 h
MDA-MB-231 breast = test system: MDA-MB-231 breast
SK-OV-3 ovarian = test system: SK-OV-3 ovarian
MALME-3M melanoma = test system: MALME-3M melanoma
MOLT-4 leukemia = test system: MOLT-4 leukemia
IGROV1 ovarian = test system: IGROV1 ovarian
K-562 leukemia = test system: K-562 leukemia
OVCAR-3 ovarian = test system: OVCAR-3 ovarian
CAKI-1 renal = test system: CAKI-1 renal
MCF7 breast = test system: MCF7 breast
SK-MEL-2 melanoma = test system: SK-MEL-2 melanoma

Row | SMILES | GI50 (MDA-MB-231 breast) | TGI (MDA-MB-231 breast) | GI50 (SK-OV-3 ovarian) | TGI (SK-OV-3 ovarian) | GI50 (MALME-3M melanoma) | TGI (MALME-3M melanoma) | GI50 (MOLT-4 leukemia) | TGI (MOLT-4 leukemia) | GI50 (IGROV1 ovarian) | TGI (IGROV1 ovarian) | GI50 (K-562 leukemia) | TGI (K-562 leukemia) | GI50 (OVCAR-3 ovarian) | TGI (OVCAR-3 ovarian) | GI50 (CAKI-1 renal) | TGI (CAKI-1 renal) | GI50 (MCF7 breast) | TGI (MCF7 breast) | TGI (SK-MEL-2 melanoma) | GI50 (SK-MEL-2 melanoma)
1 | COc1ccc(-c2csc3c2-n2cccc2C3=O)cc1O | 0.0925 µM | > 100 µM | 0.0452 µM | 18.1 µM | 35.3 µM | > 100 µM | 0.132 µM | 6.1 µM | 0.824 µM | > 47.3 µM | < 0.01 µM | > 100 µM | < 0.0152 µM | 0.0434 µM | 0.0497 µM | > 63.2 µM | 0.0326 µM | > 100 µM |  | 
2 | CC(=O)O[C@H]1CC[C@@]2(C)C(=CC[C@@H]3C2CC[C@]2(C)Nc4[nH]ncc4CC32)C1 (stereo partly drawn) |  |  |  | > 100 µM |  | 86.1 µM |  | 35.8 µM |  | > 100 µM |  | 52.8 µM |  | 36.5 µM |  | > 100 µM |  |  | 72.7 µM | 
3 | COc1cc2c(c(OC)c1OC)-c1ccc(SC)c(=O)cc1C(CC(=O)Oc1cccc(C#N)c1)C2 (stereo not drawn) |  |  |  | > 100 µM |  | > 100 µM |  | > 100 µM |  | > 100 µM |  |  |  | 0.794 µM |  | > 100 µM |  |  |  | 
4 | NC1=C(Cl)C(=O)c2ccccc2C1=O |  |  |  | 33.1 µM |  | 3.13 µM |  | 22.4 µM |  | 26 µM |  | 39 µM |  | 7.29 µM |  | 34.1 µM |  | 5.25 µM | > 44 µM | 
5 | COc1ccc2c(c1)CCCC1C3=NCCC3(C)CSC21 (stereo not drawn) |  |  |  | > 100 µM |  |  |  | > 100 µM |  | > 100 µM |  | > 100 µM |  | > 100 µM |  |  |  |  |  | 
6 | CCOC(=O)c1cnc2cc3cccccc3n2c1=O |  |  |  |  |  |  |  | > 100 µM |  | > 100 µM |  | > 100 µM |  | > 100 µM |  | > 100 µM |  |  | > 100 µM | 
7 | CO/N=C(/COc1c(-c2ccccc2)oc2ccccc2c1=O)c1ccc(F)cc1 | 20.5 µM | 53.8 µM | 62.4 µM | > 100 µM | 52.9 µM | > 100 µM |  |  | 22.1 µM | 90.7 µM | > 100 µM | > 100 µM | 56.7 µM | > 100 µM | > 100 µM | > 100 µM |  |  | > 100 µM | 58.4 µM
8 | COc1cc2c3c(n(CCCNCCNCCCN)c(=O)c2cc1OC)-c1cc2c(cc1C3=O)OCO2 | 1.19 µM | 3.59 µM | 8.08 µM | > 100 µM |  |  |  |  | 1.04 µM | 7.09 µM | 3.43 µM | > 100 µM | 2.22 µM | 7.63 µM | 5.68 µM | 24.1 µM | 2.14 µM | > 100 µM | 10 µM | 2.59 µM
9 | CCCCCCCCCCCCCCCCn1cc[n+](Cc2ccccc2)c1C | 0.0684 µM | 0.989 µM | 1.71 µM and 0.5 µM | 4.67 µM and 1.81 µM | 0.809 µM | 2.61 µM | 2.46 µM | > 100 µM | 1.09 µM | 2.29 µM |  |  | 0.178 µM and 0.175 µM | 0.947 µM and 0.49 µM |  |  | 1.12 µM and 0.289 µM | 2.39 µM and 0.968 µM | 3.26 µM | 1.52 µM
10 | O=C(O)CCCNS(=O)(=O)c1ccc2ccccc2c1 |  |  |  | > 100 µM |  | > 100 µM |  | > 100 µM |  | > 100 µM |  | > 100 µM |  | > 100 µM |  | > 100 µM |  |  | > 100 µM | 
11 | O=CN1CCN(C=S)CC1 |  |  |  | > 100 µM |  | > 100 µM |  | > 100 µM |  | > 100 µM |  | > 100 µM |  | > 100 µM |  | > 100 µM |  |  |  | 
12 | OCc1ccc(Oc2c3ccccc3nc3occc23)cc1 | 39.4 µM | > 100 µM | 36.8 µM | > 100 µM |  |  | 21 µM | 47.2 µM | 45.6 µM | > 100 µM | 30.9 µM | > 100 µM | 22.1 µM | 39.7 µM | 18.1 µM | 35.8 µM | 16.6 µM | 39.5 µM |  | 
13 | NC(N)=N/N=C/c1c(-c2ccc(Cl)c([N+](=O)[O-])c2)nc2ccccn12 | 1.69 µM | 3.29 µM |  |  |  |  | 1.68 µM | 3.64 µM | 1.36 µM | 2.85 µM |  |  | 1.59 µM | 3.11 µM | 11.8 µM | 42.4 µM |  |  |  | 
14 | COc1ccc(C(O)/C(=C/n2ccnc2)c2ccccc2)cc1OC (stereo not drawn) |  |  |  | > 100 µM |  | > 100 µM |  | > 100 µM |  | > 100 µM |  | > 100 µM |  | > 100 µM |  |  |  |  | > 100 µM | 
15 | N/C(=N\c1nc2ccccc2s1)NC(=O)Nc1cccc2ccccc12 | 0.636 µM | 3.32 µM |  |  | 1.24 µM | > 100 µM | 0.472 µM | > 100 µM | 0.371 µM | > 100 µM | 0.0765 µM | > 100 µM | 0.228 µM | 1.09 µM |  |  | 0.209 µM | > 100 µM | 34 µM | 0.582 µM
16 | CN(CCN(C)C(=O)CCOS(C)(=O)=O)C(=O)CCOS(C)(=O)=O |  |  |  | > 100 µM |  | > 100 µM |  | > 100 µM |  | > 100 µM |  | > 100 µM |  | > 100 µM |  | > 100 µM |  |  | > 100 µM | 
17 | NC(=O)c1c2c(cc3c(=O)c4ccccc4[nH]c13)CCCC2 |  |  |  | > 100 µM |  | > 100 µM |  | > 80.7 µM |  | > 100 µM |  | > 97.3 µM |  | > 100 µM |  | > 100 µM |  |  | > 100 µM | 
18 | Cc1c(O)c(=O)ccn1CCO |  |  |  | > 100 µM |  | > 100 µM |  | > 100 µM |  |  |  | > 100 µM |  | > 100 µM |  | > 100 µM |  |  | > 100 µM | 
19 | Cc1ccc(Oc2nc3ccccc3cc2-c2nnc(Cn3c(COc4ccccc4)nc4ccccc43)o2)cc1 | 1.64 µM | 4.62 µM | 11.8 µM | 32.7 µM | 3.65 µM | 15.6 µM | 2.18 µM | 7.89 µM | 3.25 µM | 22 µM | 2.59 µM | > 100 µM | 2.41 µM | 6.65 µM | 2.29 µM | 14.9 µM | 0.949 µM | 5.38 µM |  | 
20 | CC1=CC2CC(C)C1(C)CCc1ccoc12 (stereo not drawn) |  |  |  | > 100 µM |  | > 100 µM |  | > 100 µM |  | > 100 µM |  | > 100 µM |  | > 100 µM |  | > 100 µM |  |  | > 100 µM | 
